# Values of other authors, collected in patent publication US12156898B2, “Formulations of terlipressin” (BIOVIE Inc., priority 2019, dated 2024).
# Bridge positions count the residues as written; N and C are the ends. Peptide text beside a SMILES is read from it.
# Experiments:
# patients = conditions: human, in vivo
# [1] = in vivo
smiles,measurement,setting,value
NCCCC[C@H](NC(=O)[C@@H]1CCCN1C(=O)[C@@H]1CSSC[C@H](NC(=O)CNC(=O)CNC(=O)CN)C(=O)N[C@@H](Cc2ccc(O)cc2)C(=O)N[C@@H](Cc2ccccc2)C(=O)N[C@@H](CCC(N)=O)C(=O)N[C@@H](CC(N)=O)C(=O)N1)C(=O)NCC(N)=O [terlipressin] (H-GGGCYFQNCPKG-NH2; disulfide 4-9),"severe side effects requiring discontinuation of treatment, share of patients",patients,up to 10%
same,"side effects, share of patients",patients,up to 40%
same,half-life,[1],short half-life
